Results: patent US9833497B2, “Human originated EGF domain proteins and use of the same” (CHENGDU SOURCEBIO LIMITED-LIABILITY COMPANY, priority 2013, dated 2017)

Legend:
Format in all cases: cell-based
Pseudomonas aeruginosa = test: MIC against Gram-negative bacteria: Pseudomonas aeruginosa; conditions: for MIC P. aeruginosa: two-fold serial dilution; for MIC against P. aeruginosa: 96-well plate, 37° C., 10 h
Method in brief: (§1)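 The recombinant human-originated EGF domain proteins were serially diluted two-fold against bacteria at 5×10^5 CFU/mL in LB medium. After shaken incubation at 37° C, the lowest concentration with no bacterial growth was recorded as the MIC.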

Serratia marcescens = test: MIC against Gram-negative bacteria: Serratia marcescens; conditions: for MIC S. marcescens: two-fold serial dilution; for MIC against S. marcescens: 96-well plate, 37° C., 10 h
Method in brief: as §1

Proteus vulgaris = test: MIC against Gram-negative bacteria: Proteus vulgaris; conditions: for MIC P. vulgaris: two-fold serial dilution; for MIC against P. vulgaris: 96-well plate, 37° C., 10 h
Method in brief: as §1

Klebsiella pneumonia = test: MIC against Gram-negative bacteria: Klebsiella pneumonia; conditions: for MIC K. pneumonia: two-fold serial dilution; for MIC against K. pneumonia: 96-well plate, 37° C., 10 h
Method in brief: as §1

E. coli DH5α = test: Antibacterial activity: MIC and growth curve against E. coli DH5α in 96-well plate; conditions: minimal inhibitory concentration against E. coli DH5α; 96-well plate, 5×10^5 CFU/mL, 37° C., judged after 8 h
Method in brief: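 MIC taken as lowest protein level with no bacterial growth, tracked by A600 every 30 min during 37 °C, 175 rpm culture. Two-fold protein series 50-12.5 μg/mL final, triplicate wells, against 5×10^5 CFU/mL of LB-washed mid-log cells.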

Citrobacter diversus = test: MIC against Gram-negative bacteria: Citrobacter diversus; conditions: for MIC C. diversus: two-fold serial dilution; for MIC against C. diversus: 96-well plate, 37° C., 10 h
Method in brief: as §1

Moraxella catarrhalis = test: MIC against Gram-negative bacteria: Moraxella catarrhalis; conditions: for MIC M. catarrhalis: two-fold serial dilution; for MIC against M. catarrhalis: 96-well plate, 37° C., 10 h
Method in brief: as §1

E. coli BL21 = test: MIC against Gram-negative bacteria: E. coli BL21; conditions: for MIC E. coli BL21: two-fold serial dilution; for MIC against E. coli BL21: 96-well plate, 37° C., 10 h
Method in brief: as §1

Proteus mirabilis = test: MIC against Gram-negative bacteria: Proteus mirabilis; conditions: for MIC P. mirabilis: two-fold serial dilution; for MIC against P. mirabilis: 96-well plate, 37° C., 10 h
Method in brief: as §1

Aeromonas hydrophila = test: MIC against Gram-negative bacteria: Aeromonas hydrophila; conditions: for MIC A. hydrophila: two-fold serial dilution; for MIC against A. hydrophila: 96-well plate, 37° C., 10 h
Method in brief: as §1

Enterobacter cloacae = test: MIC against Gram-negative bacteria: Enterobacter cloacae; conditions: for MIC E. cloacae: two-fold serial dilution; for MIC against E. cloacae: 96-well plate, 37° C., 10 h
Method in brief: as §1

[1] = 10 h cultivation at 37° C., 5×10^5 CFU/mL
[2] = P. aeruginosa, 10 h cultivation at 37° C.
[3] = S. marcescens, 10 h cultivation at 37° C.
[4] = P. vulgaris, 10 h cultivation at 37° C.
[5] = K. pneumonia, 10 h cultivation at 37° C.
[6] = C. diversus, 10 h cultivation at 37° C.
[7] = M. catarrhalis, 10 h cultivation at 37° C.
[8] = E. coli BL21, 10 h cultivation at 37° C.
[9] = P. mirabilis, 10 h cultivation at 37° C.
[10] = A. hydrophila, 10 h cultivation at 37° C.
[11] = E. cloacae, 10 h cultivation at 37° C.

PRT1151 (QFASCENNPCGNGATCVPKSGTDIVCLCPYGRSGPLCT; listed as Homo sapiens)
25 µg/mL: MIC P. aeruginosa (Pseudomonas aeruginosa; [1]) | MIC (E. coli DH5α) | MIC M. catarrhalis (Moraxella catarrhalis; [1]) | MIC A. hydrophila (Aeromonas hydrophila; [1]) | MIC E. cloacae (Enterobacter cloacae; [1])
12.5 µg/mL: MIC S. marcescens (Serratia marcescens; [1]) | MIC P. vulgaris (Proteus vulgaris; [1]) | MIC C. diversus (Citrobacter diversus; [1]) | MIC E. coli BL21 (E. coli BL21; [1])
50 µg/mL: MIC K. pneumonia (Klebsiella pneumonia; [1]) | MIC P. mirabilis (Proteus mirabilis; [1])

PRT215 (YTQCTDGYEWDPVRQQCKDIDECDIVPDACKGGMKCVNHYGGYLCL; listed as Homo sapiens)
100 µg/mL: MIC (μg/mL) K. pneumonia (Klebsiella pneumonia; K. pneumonia, 10 h cultivation at 37° C., 5×10^5 CFU/mL)
12.5 µg/mL: MIC (μg/mL) S. marcescens (Serratia marcescens; S. marcescens, 10 h cultivation at 37° C., 5×10^5 CFU/mL) | MIC (μg/mL) P. vulgaris (Proteus vulgaris; P. vulgaris, 10 h cultivation at 37° C., 5×10^5 CFU/mL) | MIC (μg/mL) M. catarrhalis (Moraxella catarrhalis; M. catarrhalis, 10 h cultivation at 37° C., 5×10^5 CFU/mL) | MIC (μg/mL) E. coli BL21 (E. coli BL21; E. coli BL21, 10 h cultivation at 37° C., 5×10^5 CFU/mL) | MIC (μg/mL) A. hydrophila (Aeromonas hydrophila; A. hydrophila, 10 h cultivation at 37° C., 5×10^5 CFU/mL)
25 µg/mL: MIC (μg/mL) P. aeruginosa (Pseudomonas aeruginosa; P. aeruginosa, 10 h cultivation at 37° C., 5×10^5 CFU/mL) | MIC (E. coli DH5α) | MIC (μg/mL) C. diversus (Citrobacter diversus; C. diversus, 10 h cultivation at 37° C., 5×10^5 CFU/mL) | MIC (μg/mL) P. mirabilis (Proteus mirabilis; P. mirabilis, 10 h cultivation at 37° C., 5×10^5 CFU/mL) | MIC (μg/mL) E. cloacae (Enterobacter cloacae; E. cloacae, 10 h cultivation at 37° C., 5×10^5 CFU/mL)

PRT1295 (RTSPCDNFDCQNGAQCIVRINEPICQCLPGYQGEKCE; listed as Homo sapiens)
50 µg/mL: MIC against P. vulgaris (Proteus vulgaris; Proteus vulgaris, 5×10^5 CFU/mL) | MIC against K. pneumonia (Klebsiella pneumonia; Klebsiella pneumonia, 5×10^5 CFU/mL) | MIC against M. catarrhalis (Moraxella catarrhalis; Moraxella catarrhalis, 5×10^5 CFU/mL) | MIC against E. coli BL21 (E. coli BL21; E. coli BL21, 5×10^5 CFU/mL) | MIC against A. hydrophila (Aeromonas hydrophila; Aeromonas hydrophila, 5×10^5 CFU/mL)
12.5 µg/mL: MIC against P. aeruginosa (Pseudomonas aeruginosa; Pseudomonas aeruginosa, 5×10^5 CFU/mL) | MIC against S. marcescens (Serratia marcescens; Serratia marcescens, 5×10^5 CFU/mL) | MIC (E. coli DH5α) | MIC against C. diversus (Citrobacter diversus; Citrobacter diversus, 5×10^5 CFU/mL) | MIC against P. mirabilis (Proteus mirabilis; Proteus mirabilis, 5×10^5 CFU/mL) | MIC against E. cloacae (Enterobacter cloacae; Enterobacter cloacae, 5×10^5 CFU/mL)

PRT1089 (ANPCCSHPCQNRGVCMSVGFDQYKCDCTRTGFYGENCS; listed as Homo sapiens)
25 µg/mL: MIC S. marcescens (Serratia marcescens; [1]) | MIC K. pneumonia (Klebsiella pneumonia; [1]) | MIC C. diversus (Citrobacter diversus; [1]) | MIC E. coli BL21 (E. coli BL21; [1]) | MIC P. mirabilis (Proteus mirabilis; [1])
50 µg/mL: MIC P. aeruginosa (Pseudomonas aeruginosa; [1]) | MIC P. vulgaris (Proteus vulgaris; [1]) | MIC (E. coli DH5α) | MIC A. hydrophila (Aeromonas hydrophila; [1])
12.5 µg/mL: MIC M. catarrhalis (Moraxella catarrhalis; [1]) | MIC E. cloacae (Enterobacter cloacae; [1])

PRT922 (LQCRDGYEPCVNEGMCVTYHNGTGYCKCPEGFLGEYCQ; listed as Homo sapiens)
25 µg/mL: MIC (Proteus vulgaris; [4]) | MIC (Citrobacter diversus; [6]) | MIC (Moraxella catarrhalis; [7]) | MIC (E. coli BL21; [8]) | MIC (Aeromonas hydrophila; [10]) | MIC (Enterobacter cloacae; [11])
50 µg/mL: MIC (Proteus mirabilis; [9])
12.5 µg/mL: MIC (Pseudomonas aeruginosa; [2]) | MIC (Serratia marcescens; [3]) | MIC (Klebsiella pneumonia; [5]) | MIC (E. coli DH5α)

PRT534 (CKCHKAGTVSGTGECRQGDGDCHCKSHVGGDSCDTCEDGYFALEKSNYFGCQG; listed as Homo sapiens)
25 µg/mL: MIC against S. marcescens (Serratia marcescens; 5×10^5 CFU/mL) | MIC against P. mirabilis (Proteus mirabilis; 5×10^5 CFU/mL)
12.5 µg/mL: MIC against K. pneumonia (Klebsiella pneumonia; 5×10^5 CFU/mL) | MIC against M. catarrhalis (Moraxella catarrhalis; 5×10^5 CFU/mL) | MIC against E. coli BL21 (E. coli BL21; 5×10^5 CFU/mL) | MIC against A. hydrophila (Aeromonas hydrophila; 5×10^5 CFU/mL)
50 µg/mL: MIC against P. aeruginosa (Pseudomonas aeruginosa; 5×10^5 CFU/mL) | MIC against P. vulgaris (Proteus vulgaris; 5×10^5 CFU/mL) | MIC (E. coli DH5α) | MIC against C. diversus (Citrobacter diversus; 5×10^5 CFU/mL) | MIC against E. cloacae (Enterobacter cloacae; 5×10^5 CFU/mL)

PRT1029 (PANPCEDGSHTCAPAGQARCVHHGGSTFSCACLPGYAGDGHQCT; listed as Homo sapiens)
12.5 µg/mL: MIC (Proteus vulgaris; [4]) | MIC (Klebsiella pneumonia; [5]) | MIC (E. coli DH5α) | MIC (Moraxella catarrhalis; [7]) | MIC (E. coli BL21; [8]) | MIC (Aeromonas hydrophila; [10])
50 µg/mL: MIC (Pseudomonas aeruginosa; [2]) | MIC (Serratia marcescens; [3]) | MIC (Citrobacter diversus; [6]) | MIC (Proteus mirabilis; [9]) | MIC (Enterobacter cloacae; [11])
